Earlier results as cited in patent US20110177168A1, “COMPOSITION” (SmithKline Beecham Limited, priority 2000, published 2011).

[1] = oral doses of conventional immediate release tablets

CC(=O)Nc1ccc(O)cc1 [paracetamol, N-acetyl-p-aminophenol]
bioavailability [1]: 80% | tmax [1]: 0.5 to 1.5 h | elimination half-life (reported): 1.9 to 2.5 h
